Measured values as given in ChEMBL document CHEMBL5223115, “A guanidinium group is an effective mimic of the tertiary carbocation formed by isopentenyl diphosphate isomerase” (Bioorg Med Chem Lett, 2022).

What was measured:
[1] = target: T1, Isopentenyl-diphosphate Delta-isomerase (Escherichia coli (strain K12), UniProt Q46822); test: Inhibition of Escherichia coli IPP isomerase
T1 sequence (Q46822 whole entry): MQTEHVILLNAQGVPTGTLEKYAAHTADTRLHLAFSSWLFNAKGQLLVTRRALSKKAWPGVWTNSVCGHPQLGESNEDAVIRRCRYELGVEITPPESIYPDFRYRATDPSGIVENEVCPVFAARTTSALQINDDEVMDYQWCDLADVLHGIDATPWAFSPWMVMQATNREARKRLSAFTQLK

[2] = target: T1, Isopentenyl-diphosphate Delta-isomerase; test: Binding affinity to Escherichia coli IPP isomerase assessed as inhibition constant
[3] = Binding affinity to IPP isomerase (unknown origin) assessed as dissociation constant; set-up: species or system Homo sapiens
[4] = target: T1, Isopentenyl-diphosphate Delta-isomerase; test: Competitive inhibition of Escherichia coli IPP isomerase assessed as inhibition constant by Lineweaver-burk plot analysis

Row | Compound | IC50 [1] [µM] | Ki [2] [µM] | Kd [3] [µM] | Ki [4] [µM]
1 | CN(C)CCCC(=O)NS(C)(=O)=O | > 5000 | – | – | –
2 | NC(N)=NCP(=O)(O)CP(=O)(O)O | – | 0.12 | 1.2 | –
3 | N=C(N)NCCP(=O)(O)CP(=O)(O)O | 0.7 | 0.129 | – | 0.129
4 | CS(=O)(=O)NC(=O)CCNC(=N)N | 1200 | – | – | –
5 | CN(C)CCCP(=O)(O)CP(=O)(O)O | 33 | – | – | –
6 | N=C(N)NCCC(=O)NO | 670 | – | – | –
